Measurements taken from ChEMBL document CHEMBL3585305, “Structure-Based Design and Optimization of Multitarget-Directed 2H-Chromen-2-one Derivatives as Potent Inhibitors of Monoamine Oxidase B and Cholinesterases” (J Med Chem, 2015).
Calls of active or inactive are those of the source. The calls are words filed in the database; no cut-off is given here.

How the values were obtained:
[1] = target: T1, Amine oxidase [flavin-containing] A (Homo sapiens, UniProt P21397); experiment: Inhibition of human recombinant MAO-A using kynuramine substrate at 10 uM by spectrophotometric assay
T1 sequence (P21397 whole entry): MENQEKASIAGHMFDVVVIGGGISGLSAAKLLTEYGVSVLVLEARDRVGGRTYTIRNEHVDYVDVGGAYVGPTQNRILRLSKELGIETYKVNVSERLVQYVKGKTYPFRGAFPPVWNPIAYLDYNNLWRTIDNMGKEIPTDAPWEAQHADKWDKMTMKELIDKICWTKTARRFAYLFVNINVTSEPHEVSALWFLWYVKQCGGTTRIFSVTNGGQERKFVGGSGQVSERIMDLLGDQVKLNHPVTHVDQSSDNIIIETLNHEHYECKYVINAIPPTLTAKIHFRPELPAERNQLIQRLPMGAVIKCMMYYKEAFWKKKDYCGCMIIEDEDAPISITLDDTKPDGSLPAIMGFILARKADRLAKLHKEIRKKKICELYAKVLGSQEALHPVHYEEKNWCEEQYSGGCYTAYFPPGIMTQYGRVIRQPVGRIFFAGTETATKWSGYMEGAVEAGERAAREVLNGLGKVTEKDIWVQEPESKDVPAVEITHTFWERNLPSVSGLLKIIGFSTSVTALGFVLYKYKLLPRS

[2] = target: T2, Amine oxidase [flavin-containing] B (Homo sapiens, UniProt P27338); experiment: Inhibition of human recombinant MAO-B using kynuramine substrate at 10 uM by spectrophotometric assay
T2 sequence (P27338 whole entry): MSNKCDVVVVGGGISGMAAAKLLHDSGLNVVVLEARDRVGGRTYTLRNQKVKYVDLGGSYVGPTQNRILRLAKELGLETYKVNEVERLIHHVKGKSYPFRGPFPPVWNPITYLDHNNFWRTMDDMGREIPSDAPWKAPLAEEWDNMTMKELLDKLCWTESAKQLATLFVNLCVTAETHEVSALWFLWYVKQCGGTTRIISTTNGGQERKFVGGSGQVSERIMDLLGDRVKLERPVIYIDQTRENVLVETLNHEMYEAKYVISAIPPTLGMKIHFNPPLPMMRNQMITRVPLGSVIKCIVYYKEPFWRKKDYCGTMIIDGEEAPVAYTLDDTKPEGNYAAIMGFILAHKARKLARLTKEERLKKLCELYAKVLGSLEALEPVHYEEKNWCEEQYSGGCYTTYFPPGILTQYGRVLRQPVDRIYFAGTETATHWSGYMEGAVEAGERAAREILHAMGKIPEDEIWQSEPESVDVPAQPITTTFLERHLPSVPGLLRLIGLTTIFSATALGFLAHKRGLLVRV

Cholinesterase [3] = target: Cholinesterase (Equus caballus, UniProt P81908); experiment: Inhibition of equine serum BuChE by spectrophotometric Ellman's method
Acetylcholinesterase [4] = target: T3, Acetylcholinesterase (Electrophorus electricus, UniProt O42275); experiment: Inhibition of electric eel AChE by spectrophotometric Ellman's method
[5] = target: T4, Amine oxidase [flavin-containing] A (Rattus norvegicus, UniProt P21396); experiment: Inhibition of rat brain MAO-A using kynuramine substrate […] by spectrophotometric assay
T4 sequence (P21396 whole entry): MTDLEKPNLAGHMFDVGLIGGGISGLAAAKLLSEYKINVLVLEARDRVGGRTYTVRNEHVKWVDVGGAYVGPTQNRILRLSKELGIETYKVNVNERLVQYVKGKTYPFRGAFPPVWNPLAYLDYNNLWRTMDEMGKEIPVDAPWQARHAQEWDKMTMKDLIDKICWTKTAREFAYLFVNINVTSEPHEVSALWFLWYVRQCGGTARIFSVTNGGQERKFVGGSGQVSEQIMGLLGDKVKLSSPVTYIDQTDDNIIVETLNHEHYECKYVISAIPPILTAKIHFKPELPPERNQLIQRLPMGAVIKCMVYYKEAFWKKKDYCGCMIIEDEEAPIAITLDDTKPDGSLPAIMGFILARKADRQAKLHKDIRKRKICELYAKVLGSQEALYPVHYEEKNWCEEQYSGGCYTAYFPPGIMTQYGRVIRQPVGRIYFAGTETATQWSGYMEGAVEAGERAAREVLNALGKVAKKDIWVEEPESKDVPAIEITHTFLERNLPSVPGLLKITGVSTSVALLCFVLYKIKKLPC

[6] = target: T2, Amine oxidase [flavin-containing] B
Description: Inhibition of human recombinant MAO-B using kynuramine substrate by spectrophotometric assay

Cholinesterase [7] = target: T5, Cholinesterase (Homo sapiens, UniProt P06276); experiment: Inhibition of human serum BuChE by spectrophotometric Ellman's method
Acetylcholinesterase [8] = target: T3, Acetylcholinesterase; experiment: Mixed type inhibition of electric eel AChE by Lineweaver-Burk plot
[9] = target: T1, Amine oxidase [flavin-containing] A; experiment: Inhibition of human recombinant MAO-A using kynuramine substrate by spectrophotometric assay
Acetylcholinesterase [10] = target: Acetylcholinesterase (Homo sapiens, UniProt P22303); experiment: Inhibition of human recombinant AChE by spectrophotometric Ellman's method
[11] = target: T6, Amine oxidase [flavin-containing] B (Rattus norvegicus, UniProt P19643); experiment: Inhibition of rat brain MAO-B using kynuramine substrate […] by spectrophotometric assay
T6 sequence (P19643 whole entry): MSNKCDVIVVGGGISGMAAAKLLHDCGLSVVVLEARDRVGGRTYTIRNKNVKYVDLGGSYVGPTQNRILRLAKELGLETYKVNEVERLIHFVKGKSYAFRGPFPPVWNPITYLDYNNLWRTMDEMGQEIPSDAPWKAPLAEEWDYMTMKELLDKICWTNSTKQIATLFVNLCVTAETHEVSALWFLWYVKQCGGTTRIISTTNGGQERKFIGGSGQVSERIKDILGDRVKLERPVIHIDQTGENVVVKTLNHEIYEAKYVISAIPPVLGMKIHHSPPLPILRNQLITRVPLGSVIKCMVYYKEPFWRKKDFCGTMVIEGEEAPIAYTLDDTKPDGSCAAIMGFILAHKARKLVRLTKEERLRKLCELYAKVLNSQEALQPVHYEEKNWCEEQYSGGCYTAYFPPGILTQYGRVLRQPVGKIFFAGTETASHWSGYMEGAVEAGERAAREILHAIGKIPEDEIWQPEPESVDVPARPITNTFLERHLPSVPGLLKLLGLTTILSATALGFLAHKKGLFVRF

Rattus norvegicus = organism: Rattus norvegicus; experiment: Selectivity index, ratio of IC50 for rat brain MAO-A to IC50 for rat brain MAO-B
[12] = target: T1, Amine oxidase [flavin-containing] A; experiment: Inhibition of human recombinant MAO-A using kynuramine substrate at 4 uM by spectrophotometric assay
[13] = target: T6, Amine oxidase [flavin-containing] B; experiment: Inhibition of rat brain MAO-B using kynuramine substrate […] at 10 uM by spectrophotometric assay
[14] = target: T4, Amine oxidase [flavin-containing] A; experiment: Inhibition of rat brain MAO-A using kynuramine substrate […] at 10 uM by spectrophotometric assay
SH-SY5Y [15] = experiment: Neuroprotective activity in human SH-SY5Y cells assessed as inhibition H2O2-induced reduction of cell survival at 1 uM after 24 hrs by MTT assay; type: functional, cell-based
SH-SY5Y [16] = experiment: Neuroprotective activity in human SH-SY5Y cells assessed as inhibition H2O2-induced reduction of cell survival at 10 uM after 24 hrs by MTT assay; type: functional, cell-based
MDR1 [17] = experiment: Efflux ratio of apparent permeability from basolateral to apical side to apical to basolateral side in MDCK2 cells expressing MDR1 at 200 ug/ml by UV-visible spectroscopy; type: ADME, cell-based, Canis lupus familiaris, MDCK-II; conditions: dog, MDCK-MDR1
MDR1 [18] = experiment: Apparent permeability from basolateral to apical side in MDCK2 cells expressing MDR1 at 200 ug/ml by UV-visible spectroscopy; type: ADME, cell-based, Canis lupus familiaris, MDCK-II; conditions: dog, MDCK-MDR1
MDR1 [19] = experiment: Apparent permeability from apical to basolateral side in MDCK2 cells expressing MDR1 at 200 ug/ml by UV-visible spectroscopy; type: ADME, cell-based, Canis lupus familiaris, MDCK-II; conditions: dog, MDCK-MDR1
Cholinesterase [20] = target: T5, Cholinesterase; experiment: Inhibition of human serum BuChE at 10 uM by spectrophotometric Ellman's method

T3 sequence (O42275 whole entry): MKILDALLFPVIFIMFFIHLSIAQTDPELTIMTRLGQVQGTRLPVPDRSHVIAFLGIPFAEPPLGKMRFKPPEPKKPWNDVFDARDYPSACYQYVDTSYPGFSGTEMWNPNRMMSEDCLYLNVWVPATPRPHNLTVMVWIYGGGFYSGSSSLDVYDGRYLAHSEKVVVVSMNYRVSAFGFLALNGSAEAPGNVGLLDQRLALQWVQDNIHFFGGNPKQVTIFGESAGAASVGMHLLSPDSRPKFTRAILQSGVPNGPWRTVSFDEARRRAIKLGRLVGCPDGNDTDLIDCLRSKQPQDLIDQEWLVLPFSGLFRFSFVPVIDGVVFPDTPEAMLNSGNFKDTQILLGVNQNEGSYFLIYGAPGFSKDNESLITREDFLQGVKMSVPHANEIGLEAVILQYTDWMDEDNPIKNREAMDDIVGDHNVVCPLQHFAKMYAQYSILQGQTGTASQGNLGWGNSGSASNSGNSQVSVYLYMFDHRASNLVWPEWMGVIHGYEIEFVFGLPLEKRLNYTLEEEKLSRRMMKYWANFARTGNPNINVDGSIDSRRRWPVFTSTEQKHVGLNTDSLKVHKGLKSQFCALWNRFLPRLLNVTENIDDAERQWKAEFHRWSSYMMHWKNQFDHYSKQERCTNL
T5 sequence (P06276 whole entry): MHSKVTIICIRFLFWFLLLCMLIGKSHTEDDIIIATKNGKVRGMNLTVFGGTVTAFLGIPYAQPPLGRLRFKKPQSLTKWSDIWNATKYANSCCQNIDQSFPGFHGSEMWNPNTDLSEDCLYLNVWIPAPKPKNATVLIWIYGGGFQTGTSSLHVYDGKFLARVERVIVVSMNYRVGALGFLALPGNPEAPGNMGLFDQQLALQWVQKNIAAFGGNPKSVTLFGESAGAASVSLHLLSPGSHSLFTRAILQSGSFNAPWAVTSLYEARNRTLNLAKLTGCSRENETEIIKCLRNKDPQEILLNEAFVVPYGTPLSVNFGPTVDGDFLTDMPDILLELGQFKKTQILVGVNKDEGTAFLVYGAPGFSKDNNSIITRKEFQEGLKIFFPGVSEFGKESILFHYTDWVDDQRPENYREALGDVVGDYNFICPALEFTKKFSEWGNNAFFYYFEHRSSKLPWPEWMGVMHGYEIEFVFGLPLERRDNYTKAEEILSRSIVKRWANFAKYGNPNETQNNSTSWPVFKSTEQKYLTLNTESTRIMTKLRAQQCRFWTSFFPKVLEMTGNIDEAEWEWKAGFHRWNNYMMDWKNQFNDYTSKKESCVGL
Acetylcholinesterase (Homo sapiens, UniProt P22303), sequence (P22303 whole entry): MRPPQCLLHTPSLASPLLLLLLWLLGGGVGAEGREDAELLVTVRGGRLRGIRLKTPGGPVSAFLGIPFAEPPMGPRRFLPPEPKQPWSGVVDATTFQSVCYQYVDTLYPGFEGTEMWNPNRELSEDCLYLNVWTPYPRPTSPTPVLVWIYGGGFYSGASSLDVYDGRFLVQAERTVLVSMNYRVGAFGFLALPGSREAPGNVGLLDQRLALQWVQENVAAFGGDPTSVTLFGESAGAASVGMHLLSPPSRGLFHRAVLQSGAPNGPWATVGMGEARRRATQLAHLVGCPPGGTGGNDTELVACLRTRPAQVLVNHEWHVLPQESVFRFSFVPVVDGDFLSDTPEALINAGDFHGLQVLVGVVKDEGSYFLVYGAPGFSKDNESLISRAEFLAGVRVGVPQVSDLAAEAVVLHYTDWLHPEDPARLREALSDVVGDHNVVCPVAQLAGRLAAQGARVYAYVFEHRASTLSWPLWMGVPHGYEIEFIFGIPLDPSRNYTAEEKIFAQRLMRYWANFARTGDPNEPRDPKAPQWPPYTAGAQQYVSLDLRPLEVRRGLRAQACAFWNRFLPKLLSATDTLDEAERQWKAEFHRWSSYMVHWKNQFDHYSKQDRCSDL
Cholinesterase (Equus caballus, UniProt P81908), sequence (P81908 whole entry): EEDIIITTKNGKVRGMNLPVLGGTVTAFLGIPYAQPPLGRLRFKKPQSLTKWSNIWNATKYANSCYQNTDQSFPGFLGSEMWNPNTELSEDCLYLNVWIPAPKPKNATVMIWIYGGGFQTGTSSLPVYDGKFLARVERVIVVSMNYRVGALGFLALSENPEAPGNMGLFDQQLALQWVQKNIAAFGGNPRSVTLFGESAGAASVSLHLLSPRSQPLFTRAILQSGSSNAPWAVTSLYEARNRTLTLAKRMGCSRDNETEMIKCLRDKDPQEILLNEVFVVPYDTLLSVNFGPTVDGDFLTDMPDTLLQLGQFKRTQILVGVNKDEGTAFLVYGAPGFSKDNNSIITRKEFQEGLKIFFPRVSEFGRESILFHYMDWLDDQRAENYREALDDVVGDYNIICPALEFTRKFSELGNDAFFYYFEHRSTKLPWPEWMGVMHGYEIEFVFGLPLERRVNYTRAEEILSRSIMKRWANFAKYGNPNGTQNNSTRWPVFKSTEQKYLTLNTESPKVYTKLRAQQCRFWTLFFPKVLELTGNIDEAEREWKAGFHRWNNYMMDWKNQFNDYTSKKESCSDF

Compound	IC50 (Cholinesterase [3]) [nM]	IC50 (Acetylcholinesterase [4]) [nM]	IC50 [5] [nM]	IC50 [6] [nM]	IC50 [9] [nM]	IC50 (Acetylcholinesterase [10]) [nM]	IC50 [11] [nM]	inhibition at 10 µM [14] [%]	also measured
COc1cc2c(cc1OC)C(=O)C(CC1CCN(Cc3ccccc3)CC1)C2 (configuration not stated) [DONEPEZIL]	–	–	–	–	–	–	–	–	inhibition at 10 µM [1]: 0%; inhibition at 10 µM [2]: 0%
Cc1c(C)c2ccc(OCCCCCCN(C)Cc3ccccc3)cc2oc1=O	670	95	510	321	191	340	1700	–	IC50 (Cholinesterase [7]): 950 nM; Ki (Acetylcholinesterase [8]): 80 nM; Ratio IC50 (Rattus norvegicus): 0.3
CCN(CCCCCCOc1ccc2c(C)c(C)c(=O)oc2c1)Cc1ccccc1	490	320	2100	18	115	440	720	–	Ratio IC50 (Rattus norvegicus): 3
CN(Cc1ccccc1)Cc1ccc(COc2ccc3ccc(=O)[nH]c3c2)cc1	1700	490	–	4500	–	1500	–	10	inhibition at 4 µM [12]: 14%; inhibition at 10 µM [13]: 29%
CN(Cc1ccccc1)Cc1ccc(COc2ccc3c(CO)cc(=O)oc3c2)cc1.Cl	–	–	–	–	–	–	–	0	Activity (SH-SY5Y [15]): Active; Activity (SH-SY5Y [16]): Active; efflux ratio at 200 ug/ml (MDR1 [17]): 1.77; Papp B→A at 200 ug/ml (MDR1 [18]): 33.8 ×10⁻⁶ cm/s; Papp A→B at 200 ug/ml (MDR1 [19]): 19.1 ×10⁻⁶ cm/s
Cc1c(C)c2ccc(OCCCCCNCc3ccccc3)cc2oc1=O	1800	940	2200	29	390	300	500	–	IC50 (Cholinesterase [7]): 950 nM
CN(Cc1ccc(COc2ccc3c(CO)cc(=O)oc3c2)cc1)Cc1cccc(Cl)c1	630	250	–	24	13000	330	240	0	inhibition (Cholinesterase [20]): 14%
Cc1c(C)c2ccc(OCc3ccc(CN(C)Cc4ccccc4)cc3)cc2oc1=O	690	100	–	53	4300	450	1200	0	inhibition (Cholinesterase [20]): 46%
